In patent US12116343B2, “Inhibitors of APOL1 and methods of using same” (Vertex Pharmaceuticals Incorporated, priority 2020, dated 2024) one finds IC50 data, which are given here for 41 molecules.

By IC50 is commonly meant the point on the concentration scale where inhibition reaches its midpoint.

In the experiment the target is T1, APOL1 G1 Protein (Homo sapiens, UniProt O14791, I384M/S342G).
T1 sequence (O14791 28-398 S342G/I384M): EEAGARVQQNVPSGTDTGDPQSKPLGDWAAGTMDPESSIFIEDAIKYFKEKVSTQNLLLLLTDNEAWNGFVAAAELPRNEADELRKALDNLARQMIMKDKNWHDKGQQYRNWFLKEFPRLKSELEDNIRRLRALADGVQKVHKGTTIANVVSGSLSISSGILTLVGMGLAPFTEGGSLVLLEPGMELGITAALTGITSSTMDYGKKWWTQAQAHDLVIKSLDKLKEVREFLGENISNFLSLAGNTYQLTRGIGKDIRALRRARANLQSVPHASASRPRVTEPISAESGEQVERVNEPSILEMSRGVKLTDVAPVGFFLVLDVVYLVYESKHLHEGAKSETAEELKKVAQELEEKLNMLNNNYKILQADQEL
The experiment in a line: Trypanosoma brucei brucei lysis assay using APOL1 recombinant protein (AlamarBlue viability). Format: cell-based. The note with it: Trypanosoma brucei brucei lysis, recombinant APOL1, AlamarBlue; read-out: Trypanosoma Assay (IC50). The text has this: Trypanosoma brucei brucei is a blood stream parasite to which human, gorillas and baboon are immune due to the presence of the APOL1 protein in their HDL particles. The protein is uptaken by the parasite via the TbHpHb receptor located in its flagellar pocket and is bonded by the Hpr protein contained in the HDL particles which triggers the receptor endocytosis by the parasite.
Following endocytosis, the formed vesicle containing the HDL particle matures from early to late endosome, and subsequently to lysosome. The concomitant pH change in the lumen of the vesicle triggers the insertion of the APOL1 protein into the membrane of the late endosome/lysosome and hereby triggers lysosomal membrane premeabilisation and as a further downstream event, trypanosome lysis. Trypanosoma brucei brucei is sensitive to lysis by all three APOL1 variants (G0, G1, and G2).
The Trypanosoma brucei brucei lysis assay is a lysis assay of the parasite using recombinant APOL1 protein variant followed by a fluorescent detection method of viability by the addition of AlamarBlue reagent to the assay well, a general metabolic redox indicator (AlamarBlue assay).
Briefly, the AlamarBlue active compound, the resazurin, a blue, water soluble, non-toxic and cell permeable molecule, which can be followed by absorbance, is reduced by various metabolic pathways into resorufin, a red compound which can be followed by either absorbance or fluorescence. The assay allows the calculation of the percent viability (percent of living Trypanosomes remaining in each well) at the end of a lysis relative to the untreated condition by interpolation of fluorescent values (FLU) on a standard curve with a known amount of seeded trypanosome/well.
Trypanosoma brucei brucei (ATCC, Cat. No. PRA-382) • Lister 427 VSG 221 bloodstream form.
Thaw/Expansion Media (ATCC Medium 2834 Modified HMI-9 Medium)
Assay Media (No Phenol Red/No FBS): Make on Day of Use
Hypoxanthine Stock (100×)-9 (10×)
Equipment • El-Clip Tip pipette 12 channel adjustable 2-125 μL, Cat. No. 4672070BT • ThermoFisher MultiDrop 384, Cat. No. 5840300 • Multidrop • Agilent Bravo, Cat. No. G5409A • Bravo • SpectraMax M5
Assay Ready Plates (ARPs) • ARPs comes in two formats: • […] final top concentration with a 2.5 fold dilution down. • […] final top concentration with a 3 fold dilution down. • Both have a 10 point Dose response. • 0.1% DMSO final in the Black Assay Plate. • Compounds are diluted 1000 fold in the Black Assay Plate. • Each plate is designed for 14 compounds in duplicate. • In the final Black Assay Plate:
Trypanosoma brucei brucei Culture
Step 2, Day 4 • Centrifuge at 800×g for 5 minutes at room temperature. • Resuspend in 1 mL media. • Make a 1:25 fold dilution (10 μL/240 μL media). • Count on a hemocytometer (after adding parasites). • Let sit for 1-2 minutes for the parasites to settle. • Count should be approximately 100 viable motile parasites/16 grid or approximately 25×10^6 parasites/flask. • Passage the parasites by adding 1×10^6 parasites/T75 flask in 20 mL media. • Passage the parasites by adding 2.33×10^6 parasites/T175 flask in 46.6 mL media. • For every T75 flask should make enough for approximately 1.5×384 well assay plates. • For every T175 flask should make enough for approximately 3.8×384 well assay plates.
Step 3, Day 6 • Centrifuge at 800×g for 5 minutes. • Resuspend in 3 mL assay media (No phenol red, no FBS) per 75 starting flask. • Resuspend in 7 mL assay media (No phenol red, no FBS) per 175 flask • Make a 1:25 fold dilution. • Count by hemocytometer. • Every T75 flask set up should have approximately 75×10^6 parasites/flask (verify doubling time=8.7 hrs±1 hr). • Every T175 flask set up should have approximately 175×10^6 parasites/flask (verify doubling time=8.7 hrs±1 hr). • Require 46×10^6 parasites per 384 well plate (at 120,000 parasites per well). Protocol B […]
(In general: The colour change of resazurin is a common sign of viable cells or microbes.)

With `CC(CO)N(C)C(=O)[C@H]1C[C@H](c2c(-c3ccc(F)cc3)[nH]c3c(F)cc(F)cc32)C1` (mixture of isomers) [Compound 193], the IC50 is 250 to 1000 nM.
The result for `CC(C)CC(NC(=O)[C@H]1C[C@H](c2c(-c3ccc(F)cc3)[nH]c3c(F)cc(F)cc32)C1)C(N)=O` (some centres unmarked) [Compound 30] reads over 1000 nM.
For the molecule `O=C(N[C@H]1CC[C@@H]1O)[C@H]1C[C@H](c2c(-c3ccc(F)cc3)[nH]c3c(F)cc(F)cc32)C1` [Compound 178], the IC50 was in the range of 250 to 1000 nM.
`COC1CC1NC(=O)[C@H]1C[C@H](c2c(-c3ccc(F)cc3)[nH]c3c(F)cc(F)cc32)C1` (some centres unmarked) [Compound 18]: the IC50 was over 1000 nM.
For the molecule `O=C([C@H]1C[C@H](c2c(-c3ccc(F)cc3)[nH]c3c(F)cc(F)cc32)C1)N1CC[C@@H]1CO` [Compound 195], the concentration for half-maximal inhibition (IC50) is under 250 nM.
With `N#CC(CO)NC(=O)[C@H]1C[C@H](c2c(-c3ccc(F)cc3)[nH]c3c(F)cc(F)cc32)C1` (some centres unmarked) [Compound 201], the half-inhibitory concentration (IC50) is under 250 nM.
Then `CC(O)(CO)CNC(=O)[C@H]1C[C@H](c2c(-c3ccc(F)cc3)[nH]c3c(F)cc(F)cc32)C1` (mixture of isomers) [Compound 216], with over 1000 nM.
Turning to `O=C(NCC(F)(F)F)[C@H]1C[C@H](c2c(-c3ccc(F)cc3)[nH]c3c(F)cc(F)cc32)C1` [Compound 33], the IC50 was over 1000 nM.
Take `O=C1CCC(NC(=O)[C@H]2C[C@H](c3c(-c4ccc(F)cc4)[nH]c4c(F)cc(F)cc43)C2)C(=O)N1` (some centres unmarked) [Compound 26]: the 50% inhibitory concentration (IC50) was 250 to 1000 nM.
For `Cc1cnc(NC(=O)[C@H]2C[C@H](c3c(-c4ccc(F)cc4)[nH]c4c(F)cc(F)cc43)C2)o1` [Compound 24], the 50% inhibitory concentration (IC50) was over 1000 nM.
The result for `O=C(NCCn1cnnc1)[C@H]1C[C@H](c2c(-c3ccc(F)cc3)[nH]c3c(F)cc(F)cc32)C1` [Compound 39] reads over 1000 nM; that for `O=C([C@H]1C[C@H](c2c(-c3ccc(F)cc3)[nH]c3c(F)cc(F)cc32)C1)N1CCC[C@@H]1CO` [Compound 192], under 250 nM; that for `O=C([C@H]1C[C@H](c2c(-c3ccc(F)cc3)[nH]c3c(F)cc(F)cc32)C1)N1CCOC[C@H]1CO` [Compound 217], 250 to 1000 nM.
For the molecule `O=C(NCC1(O)CC1)[C@H]1C[C@H](c2c(-c3ccc(F)cc3)[nH]c3c(F)cc(F)cc32)C1` [Compound 183], the half-inhibitory concentration (IC50) fell in the range of 250 to 1000 nM.
`O=C(N[C@H]1C[C@H](O)C1)[C@H]1C[C@H](c2c(-c3ccc(F)cc3)[nH]c3c(F)cc(F)cc32)C1` [Compound 20]: the IC50 is 250 to 1000 nM.
For `CC(C)(O)C(O)CNC(=O)[C@H]1C[C@H](c2c(-c3ccc(F)cc3)[nH]c3c(F)cc(F)cc32)C1` (some centres unmarked) [Compound 215], the concentration for half-maximal inhibition (IC50) was over 1000 nM.
Consider `O=C(NCC(O)CO)[C@H]1C[C@H](c2c(-c3ccc(F)cc3)[nH]c3c(F)cc(F)cc32)C1` (some centres unmarked) [Compound 14], for which the half-maximal inhibitory concentration (IC50) was in the range of 250 to 1000 nM.
With `Cc1cc(NC(=O)[C@H]2C[C@H](c3c(-c4ccc(F)cc4)[nH]c4c(F)cc(F)cc43)C2)no1` [Compound 17], the IC50 fell in the range of 250 to 1000 nM.
Take `O=C(NC[C@@H](O)C(F)(F)F)[C@H]1C[C@H](c2c(-c3ccc(F)cc3)[nH]c3c(F)cc(F)cc32)C1` [Compound 177]: the half-maximal inhibitory concentration (IC50) was 250 to 1000 nM.
For `Cc1noc(CNC(=O)[C@H]2C[C@H](c3c(-c4ccc(F)cc4)[nH]c4c(F)cc(F)cc43)C2)n1` [Compound 173], the IC50 is under 250 nM.
In the case of `C[C@]1(NC(=O)[C@H]2C[C@H](c3c(-c4ccc(F)cc4)[nH]c4c(F)cc(F)cc43)C2)C[C@@H](O)C1` [Compound 211], the IC50 is 250 to 1000 nM.
The result for `O=C([C@H]1C[C@H](c2c(-c3ccc(F)cc3)[nH]c3c(F)cc(F)cc32)C1)N1CC[C@H]1CO` [Compound 206] reads under 250 nM; that for `CC(CO)(CO)NC(=O)[C@H]1C[C@H](c2c(-c3ccc(F)cc3)[nH]c3c(F)cc(F)cc32)C1` [Compound 186], under 250 nM.
For the molecule `C[C@@H](O)CNC(=O)[C@H]1C[C@H](c2c(-c3ccc(F)cc3)[nH]c3c(F)cc(F)cc32)C1` [Compound 175], the half-maximal inhibitory concentration (IC50) was 250 to 1000 nM.
Turning to `CC(C)C(CO)NC(=O)[C@H]1C[C@H](c2c(-c3ccc(F)cc3)[nH]c3c(F)cc(F)cc32)C1` (some centres unmarked) [Compound 29], the half-maximal inhibitory concentration (IC50) was in the range of 250 to 1000 nM.
Then `Cc1ccn(CCNC(=O)[C@H]2C[C@H](c3c(-c4ccc(F)cc4)[nH]c4c(F)cc(F)cc43)C2)n1` [Compound 35], with 250 to 1000 nM.
Regarding `C#CC(CO)NC(=O)[C@H]1C[C@H](c2c(-c3ccc(F)cc3)[nH]c3c(F)cc(F)cc32)C1` (some centres unmarked) [Compound 196], the IC50 was under 250 nM.
Then `CC[C@H](CO)NC(=O)[C@H]1C[C@H](c2c(-c3ccc(F)cc3)[nH]c3c(F)cc(F)cc32)C1` [Compound 203], with 250 to 1000 nM.
In the case of `O=C(NC1(CO)CCOC1)[C@H]1C[C@H](c2c(-c3ccc(F)cc3)[nH]c3c(F)cc(F)cc32)C1` (some centres unmarked) [Compound 194], the IC50 was under 250 nM.
For the molecule `CC[C@@H](CO)NC(=O)[C@H]1C[C@H](c2c(-c3ccc(F)cc3)[nH]c3c(F)cc(F)cc32)C1` [Compound 204], the 50% inhibitory concentration (IC50) is under 250 nM.
On to `Cc1nnc(CNC(=O)[C@H]2C[C@H](c3c(-c4ccc(F)cc4)[nH]c4c(F)cc(F)cc43)C2)o1` [Compound 172], for which the half-maximal inhibitory concentration (IC50) was under 250 nM.
Take `C[C@@H](NC(=O)[C@H]1C[C@H](c2c(-c3ccc(F)cc3)[nH]c3c(F)cc(F)cc32)C1)C(N)=O` [Compound 28]: the IC50 is over 1000 nM.
Turning to `O=C(NC[C@H](O)CO)[C@H]1C[C@H](c2c(-c3ccc(F)cc3)[nH]c3c(F)cc(F)cc32)C1` [Compound 225], the IC50 lay in the range of 250 to 1000 nM.
As for `CC(C)(CO)NC(=O)[C@H]1C[C@H](c2c(-c3ccc(F)cc3)[nH]c3c(F)cc(F)cc32)C1` [Compound 31], the IC50 is 250 to 1000 nM.
On to `COC[C@@H]1CCN1C(=O)[C@H]1C[C@H](c2c(-c3ccc(F)cc3)[nH]c3c(F)cc(F)cc32)C1` [Compound 220], for which the IC50 was in the range of 250 to 1000 nM.
Then `O=C(NCC1(O)COC1)[C@H]1C[C@H](c2c(-c3ccc(F)cc3)[nH]c3c(F)cc(F)cc32)C1` [Compound 185], with 250 to 1000 nM.
Then `O=C1NCCC1CNC(=O)[C@H]1C[C@H](c2c(-c3ccc(F)cc3)[nH]c3c(F)cc(F)cc32)C1` (some centres unmarked) [Compound 208], with over 1000 nM.
Then `O=C([C@H]1C[C@H](c2c(-c3ccc(F)cc3)[nH]c3c(F)cc(F)cc32)C1)N1CCOC[C@@H]1CO` [Compound 219], with under 250 nM; and `NC(=O)C1CC(c2c(-c3ccc(F)cc3)[nH]c3c(F)cc(F)cc23)C1` (centres unmarked) [Compound 278, 3-[5,7-difluoro-2-(4-fluorophenyl)-1H-indol-3-yl]cyclobutanecarboxamide], with 250 to 1000 nM.
For the molecule `CC(C#N)(CO)NC(=O)[C@H]1C[C@H](c2c(-c3ccc(F)cc3)[nH]c3c(F)cc(F)cc32)C1` (some centres unmarked) [Compound 191], the 50% inhibitory concentration (IC50) is under 250 nM.
Consider `O=C(N[C@H]1COC[C@@H]1O)[C@H]1C[C@H](c2c(-c3ccc(F)cc3)[nH]c3c(F)cc(F)cc32)C1` [Compound 184], for which the 50% inhibitory concentration (IC50) was in the range of 250 to 1000 nM.
